These results are taken from patent publication US20250002854A1, “METHODS OF GENERATING POPULATIONS OF TUMOUR-INFILTRATING T CELLS” (LYTIX BIOPHARMA AS, priority 2016, published 2025).

Square brackets hold non-standard residues; d marks the D form. Ends that are not written are not given here. Dip = N[C@H](C(=O)O)C(c1ccccc1)c1ccccc1

As a reminder, the IC50 is the concentration needed to halve the response being measured.

One test relates to HEPG2. Description: In vitro cytotoxicity, MTT assay. The format is cell-based. Particulars: HEPG2 human hepatocellular carcinoma. An excerpt: (§1) JM1, a rat hepatocellular carcinoma, HEPG2 and BEL7402, both human hepatocellular carcinomas, were kindly provided by Dr. Pål-Dag Line, Director, Department of Transplantation Medicine, Oslo University Hospital. B16F1 (ATCC, CRL-6323), a murine skin malignant melanoma, MDA-MB-435S (HTB-129), a human malignant melanoma originating from a breast metastases, Malme-3M (HTB-64), a human malignant melanoma derived from a lung metastases, MRC-5 (ATCC, CCL-171), normal human lung fibroblasts, SK-N-AS (ATCC, CRL-2137), a human neuroblastoma cell line derived from a bone marrow metastases, HT-29 (ATCC, HTB-38), a human colorectal adenocarcinoma and HUV-EC-C (ATCC, CRL-1730), a human vascular endothelium cell line, were all purchased from the American Type Culture Collection (ATCC-LGC Standards, Rockville, MD, USA). HaCat, a human keratinocyte cell line, was kindly provided by Dr. Ingvild Pettersen, Department of Host Microbe Interactions, University of Tromsø. A375, a malignant melanoma cell line of human origin, was purchased from Public Health England (PHE Culture Conditions, Porton, Down, Salisbury, UK). JM1, A375, BEL7402, HEPG2 and B16F1 were all maintained in culture media consisting of DMEM (high glucose), while SK-N-AS, HT-29 and MDA-MB-435S were cultured in an RPMI-1640 medium containing 2 mM L-glutamine and sodium bicarbonate. Malme-3M was cultured in RPMI-1640, containing 4 mM L-glutamine and 20% FBS (fetal bovine serum). Lastly, the three non-malignant cell lines, HUV-EC-C, MRC-5 and HaCat, were cultured, respectively, using the EGM-2 BulletKit (Lonza, MA), containing basal media and growth factors, MEM (normal glucose) also containing 2 mM L-glutamine and 1% non-essential amino acids and DMEM (normal glucose) containing 2 mM L-glutamine. All media were (if not specified otherwise) supplemented with 10% FBS, with the exception of the EGM-2 BulletKit, which is delivered with an aliquot of 10 ml FBS to yield a final concentration of 2% FBS in solution. […]

The next test concerns MDA-MB-435S. Description: In vitro cytotoxicity, MTT assay. Type of test: cell-based. Particulars: MDA-MB-435S human malignant melanoma.
Description: as §1

Another test has as its system remaining cell lines. Description: In vitro cytotoxicity, MTT assay. Type of test: cell-based.
Description: as §1
On the technique in general: Tetrazolium assays rely on reduction of a dye to a coloured formazan, in cell work by metabolically active cells.

The test system of a further test is B16F1 cells. Put plainly: In vitro cytotoxicity, MTT assay (IC50 4h). The format is cell-based, murine. The settings on record: B16F1, 4 h.
Description: as §1, with “bicarbonate.” for “bicarbonate. Malme-3M was cultured in RPMI-1640, containing 4 mM L-glutamine and 20% FBS (fetal bovine serum). Lastly, the three non-malignant cell lines, HUV-EC-C, MRC-5 and HaCat, were cultured, respectively, using the EGM-2 BulletKit (Lonza, MA), containing basal media and growth factors, MEM (normal glucose) also containing 2 mM L-glutamine and 1% non-essential amino acids and DMEM (normal glucose) containing 2 mM L-glutamine. All media were (if not specified otherwise) supplemented with 10% FBS, with the exception of the EGM-2 BulletKit, which is delivered with an aliquot of 10 ml FBS to yield a final concentration of 2% FBS in solution.”

Test [1] has as its system A375 cells. Put plainly: Confocal microscopy, internalization of fluorescence-labeled peptide. The format is cell-based, human. On the procedure:
The A375 cell line A375 (ECACC, 88113005) is a human malignant melanoma derived from patient material, and was purchased from Public Health England (PHE Culture Collections, Porton Down, Salisbury, UK). Cells were maintained as monolayer cultures in high glucose […] DMEM supplemented with 10% FBS and 1% L-glutamine, but not as antibiotics (complete media). The cell line was grown in a humidified 5% CO2 atmosphere at 37° C., and was regularly tested for the presence of mycoplasma with MycoAlert (Lonza).
Fixed cells, fluorescence-labeled peptide—Subconfluential A375 cells were seeded at 8,000 cells/well as above, and transfected on the second day using the Lipofectamine LTX with Plus transfection reagents (Invitrogen) following the manufacturer's protocol. The mitochondria were labeled using the pDsRed2-Mito, and the nucleus was labeled using the GFP-Histon2B plasmid (Imaging Platform, University of Tromsø). A day after transfection, cells were washed twice with serum-free RPMI, and treated at different concentration and incubation periods with LTX-315 Pacific Blue or LTX-328 Pacific Blue. […] Control cells were treated with unlabeled LTX-315 and also with serum-free RPMI only. After incubation, cells were fixed with 4% paraformaldehyde in PBS, and the wells were covered with Prolong Gold antifade (Invitrogen). Cells were further analyzed by use of a Leica TCS SP5 confocal microscope, with a […] objective. Pacific Blue, GFP and Ds Red were excited using UV, with 488 and 561 lasers, and fluorescence channels were sequentially detected using the following band passes: UV: 420-480 nm (with attenuation), 488: 501-550 nm and 561: 576-676 nm.

Test [2] concerns A375 cells. Put plainly: Release of cytochrome-C (ELISA). The format is cell-based, human. Particulars: 35 μM. On the procedure:
A375 cells were seeded as with HMGB1 studies, and treated with 35 μM for different time points (5, 15, 45). Supernatants were collected and concentrated as with HMGB1 studies, and samples from the supernatants were analyzed using a 4.5 hour solid form Cytochrome C-Elisa kit (R&D Systems, USA, #DCTC0) following the manufacturer's description. Shortly thereafter, a 50% diluted sample was analyzed and the optical density was determined using a microplate reader set at 450 nm, and […]. A standard curve was generated for each set of samples assayed. Samples were run in four parallels, and the cytochrome-c released into the supernatant was expressed as a fold over the level of cytochrome-c in the supernatant of untreated cells.

With `Cl.Cl.NCCNC(=O)C(CN)(CCCc1ccccc1)CCCc1ccccc1` [LTX-401], the IC50 in the test on HEPG2 was 35.4 µM; in the test with MDA-MB-435S it was 13.5 µM; in the test on remaining cell lines, 19 to 32 µM; in the test on B16F1 cells, 27 µM.

Consider “K-K-W-W-K-K-W-Dip-K-NH2 (KKWWKKW[Dip]K-NH2) [LTX-315]”, for which, in the test on A375 cells [1] (1.5 μM, 30 minutes), the “accumulation of labelled peptide around the mitochondria” value is given as “showed an accumulation around the mitochondria” and the “detection of labelled peptide in the cell nucleus” value was “not detected in the cell nucleus”. The internalization of peptide result with A375 cells [1] (3 μM, 60 min) is “detected in the cytoplasm”. The “internalization of Pacific Blue-labelled peptide” value with A375 cells [1] (A375 cells, 3 μM and 1.5 μM) was “rapidly penetrated the plasma membrane”. The “cytochrome-C in the supernatant compared to untreated control cells” value in the test with A375 cells [2] is recorded as “three times more”.
